Assay results taken from ChEMBL document CHEMBL1201862, “PubChem BioAssay data set” (2004).
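Tested at 5 concentrations; 48 h exposure; 96-well plates; endpoints linearly interpolated, else capped at highest concentration. At the GI50, growth is halved.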 Calls of active or inactive are those of the source. Rule as the data show it: active = GI50 up to about 1.1 µM and inactive = higher.

Assays:
Experiment in all cases: growth of human tumour cells (NCI), 48 h
SF-295 = system: SF-295
HCT-116 = system: HCT-116
RPMI-8226 = system: RPMI-8226
SW-620 = system: SW-620
TK-10 = system: TK-10
SK-OV-3 = system: SK-OV-3
COLO 205 = system: COLO 205
EKVX = system: EKVX
786-0 = system: 786-0
RXF 393 = system: RXF 393
NCI-H23 = system: NCI-H23
OVCAR-4 = system: OVCAR-4
CAKI-1 = system: CAKI-1
HOP-92 = system: HOP-92
HL-60 = system: HL-60
SK-MEL-2 = system: SK-MEL-2

Measured: GI50

CC1(C)CC[C@]2(C(=O)O)CCC3(C)C(=CCC4[C@@]5(C)CC[C@H](OC6OCC(O)C(O)C6OC6OC(CO)C(O)C(O)C6O)C(C)(C)C5CC[C@]43C)C2C1 (stereo not given in full)
inactive: SF-295 1.79 µM | HCT-116 2.81 µM | RPMI-8226 2.35 µM | SW-620 2.15 µM | TK-10 2.04 µM | SK-OV-3 2.22 µM | COLO 205 1.89 µM | EKVX 1.79 µM | 786-0 2.04 µM | RXF 393 1.96 µM | NCI-H23 2.11 µM | OVCAR-4 1.57 µM | CAKI-1 1.66 µM | HOP-92 1.84 µM

CC(Cn1c2c3ccccc3ccc2c2oc(=O)c3ccccc3c21)N(C)C (stereo not given)
inactive: SF-295 > 100 µM | HCT-116 > 100 µM | RPMI-8226 > 100 µM | SW-620 > 100 µM | TK-10 > 100 µM | COLO 205 > 100 µM | EKVX > 100 µM | 786-0 > 100 µM | NCI-H23 > 100 µM | HL-60 > 100 µM | OVCAR-4 > 100 µM | CAKI-1 > 100 µM | SK-MEL-2 > 100 µM | HOP-92 > 100 µM

Cc1cc(CC(O)c2ccc(Cl)c(Cl)c2)nc(O)n1 (stereo not given)
inactive: SF-295 30.3 µM | HCT-116 19.6 µM | RPMI-8226 71.9 µM | SW-620 36.1 µM | TK-10 86.9 µM | SK-OV-3 35.2 µM | COLO 205 31 µM | EKVX 29.8 µM | 786-0 17.6 µM | NCI-H23 27.5 µM | HL-60 31 µM | OVCAR-4 48.9 µM | CAKI-1 21.7 µM | SK-MEL-2 61.7 µM | HOP-92 18 µM

COc1ccc(/C=C2\CCCCC2=O)cc1
inactive: SF-295 > 100 µM | HCT-116 > 100 µM | SW-620 > 100 µM | TK-10 > 100 µM | SK-OV-3 > 100 µM | COLO 205 > 100 µM | EKVX > 100 µM | 786-0 > 100 µM | NCI-H23 > 100 µM | HL-60 > 100 µM | OVCAR-4 > 100 µM | CAKI-1 92.5 µM

Cc1ccc(Nc2nc(-c3ccc(-c4ccc([N+](=O)[O-])cc4)o3)cs2)cc1
inactive: SF-295 33.2 µM | HCT-116 67.1 µM | RPMI-8226 12.6 µM | SW-620 95.3 µM | TK-10 25.4 µM | SK-OV-3 > 100 µM | COLO 205 40 µM | 786-0 68.5 µM | NCI-H23 25.6 µM | HL-60 58.7 µM | OVCAR-4 63.1 µM | CAKI-1 > 100 µM | SK-MEL-2 > 100 µM | HOP-92 37.2 µM

COC(=O)C(c1ccc(OC)cc1)N1C(=O)[C@@H](NC(=O)c2ccccc2)[C@H]1[C@@H](C)O (stereo not given in full)
inactive: SF-295 > 100 µM | HCT-116 > 100 µM | SW-620 > 100 µM | TK-10 > 100 µM | SK-OV-3 > 100 µM | COLO 205 > 100 µM | EKVX > 100 µM | 786-0 > 100 µM | RXF 393 > 100 µM | NCI-H23 > 100 µM | HL-60 > 100 µM | OVCAR-4 > 100 µM | SK-MEL-2 > 100 µM | HOP-92 > 100 µM

N=C(N)NS(=O)(=O)c1ccc(NC(=O)c2cccc3c(Nc4ccc(S(=O)(=O)N=C(N)N)cc4)c4ccc(Cl)cc4nc23)cc1
inactive: SF-295 > 100 µM | HCT-116 38.7 µM | RPMI-8226 43.9 µM | SW-620 62.4 µM | TK-10 > 100 µM | SK-OV-3 32.1 µM | COLO 205 47.2 µM | EKVX 96.8 µM | 786-0 > 100 µM | RXF 393 > 100 µM | NCI-H23 > 100 µM | OVCAR-4 80 µM | CAKI-1 94.6 µM | SK-MEL-2 > 100 µM | HOP-92 32.7 µM

CN(C)CCCN1N=Nc2cccc3cccc1c23
inactive: SF-295 > 90.8 µM | HCT-116 28.8 µM | RPMI-8226 > 51.1 µM | SW-620 24.3 µM | TK-10 > 100 µM | SK-OV-3 > 100 µM | COLO 205 34.6 µM | EKVX > 100 µM | 786-0 17.9 µM | NCI-H23 > 100 µM | HL-60 30.3 µM | OVCAR-4 20.3 µM | CAKI-1 > 71.3 µM | SK-MEL-2 > 100 µM | HOP-92 90.6 µM

COc1cccc(C2c3cc4c(cc3OC(O)(CO)C2C(=O)O)OCO4)c1.COc1cccc(C2c3cc4c(cc3OC3(O)COC(=O)C23)OCO4)c1 (stereo not given)
inactive: SF-295 39.9 µM | HCT-116 46.1 µM | RPMI-8226 53 µM | SW-620 82.2 µM | TK-10 > 100 µM | SK-OV-3 91.8 µM | COLO 205 > 100 µM | EKVX 42.8 µM | 786-0 > 100 µM | RXF 393 33.5 µM | NCI-H23 43.5 µM | HL-60 33.7 µM | OVCAR-4 37 µM | SK-MEL-2 > 100 µM | HOP-92 30.6 µM

Nc1ncnc2c1ncn2CCCC(c1ccccc1)P(=O)(O)O (stereo not given)
inactive: SF-295 > 100 µM | HCT-116 > 100 µM | SW-620 > 100 µM | TK-10 > 100 µM | SK-OV-3 > 100 µM | COLO 205 > 100 µM | EKVX > 100 µM | 786-0 > 100 µM | RXF 393 > 100 µM | NCI-H23 > 100 µM | HL-60 > 100 µM | CAKI-1 17 µM | SK-MEL-2 > 100 µM

N#CC(C(=N/NC(N)=S)/C(=N\NC(N)=S)C(C#N)c1ccccc1)c1ccccc1 (stereo not given)
inactive: SF-295 > 10 µM | HCT-116 > 10 µM | RPMI-8226 > 10 µM | SW-620 > 10 µM | TK-10 > 10 µM | SK-OV-3 > 10 µM | COLO 205 > 10 µM | EKVX > 10 µM | 786-0 > 10 µM | RXF 393 > 10 µM | NCI-H23 > 10 µM | HL-60 > 10 µM | OVCAR-4 > 10 µM | SK-MEL-2 > 10 µM | HOP-92 > 10 µM

O=[N+]([O-])c1cccc(C2=NN(c3ccccc3)C3c4ccccc4OCC23)c1 (stereo not given)
inactive: SF-295 > 100 µM | HCT-116 27.2 µM | RPMI-8226 > 100 µM | SW-620 > 100 µM | TK-10 > 100 µM | SK-OV-3 > 100 µM | COLO 205 > 100 µM | EKVX > 100 µM | 786-0 > 100 µM | RXF 393 > 100 µM | NCI-H23 > 100 µM | HL-60 66.1 µM | SK-MEL-2 > 100 µM | HOP-92 52.8 µM

O=[N+]([O-])c1ccc(-c2ccc(/C=N/n3c(S)nnc3-c3ccc(Cl)cc3)o2)cc1
inactive: SF-295 24.1 µM | HCT-116 17.7 µM | RPMI-8226 16.6 µM | SW-620 29 µM | TK-10 31 µM | SK-OV-3 > 40.7 µM | COLO 205 32.1 µM | EKVX > 100 µM | 786-0 19.2 µM | NCI-H23 27.2 µM | HL-60 51.2 µM | OVCAR-4 > 38.1 µM | CAKI-1 > 39 µM | SK-MEL-2 34.2 µM | HOP-92 > 42 µM
